Reference: ChEMBL document CHEMBL1138285, “Structure-activity relationships of adenosines with heterocyclic N6-substituents” (Bioorg Med Chem Lett, 2007)
pKi: −log10 of the molar value.

Columns and labels:
[1] = biological target: Adenosine receptor A2a (Rattus norvegicus) (UniProt P30543); assay: Displacement of [3H]ZM-241385 from adenosine A2A receptor expressed in PC12 cell membrane
[2] = species on record: Homo sapiens; assay: Selectivity for adenosine A1 receptor over adenosine A2A receptor
[3] = system: Adenosine receptor A1 (Mesocricetus auratus); assay: Intrinsic activity at adenosine A1 receptor expressed in DDT1 MF2 cells assessed as maximal inhibition of (-)-isoproterenol-stimulated cAMP accumulation

Adenosine receptor A2a (Rattus norvegicus), sequence (P30543 whole entry, looked up): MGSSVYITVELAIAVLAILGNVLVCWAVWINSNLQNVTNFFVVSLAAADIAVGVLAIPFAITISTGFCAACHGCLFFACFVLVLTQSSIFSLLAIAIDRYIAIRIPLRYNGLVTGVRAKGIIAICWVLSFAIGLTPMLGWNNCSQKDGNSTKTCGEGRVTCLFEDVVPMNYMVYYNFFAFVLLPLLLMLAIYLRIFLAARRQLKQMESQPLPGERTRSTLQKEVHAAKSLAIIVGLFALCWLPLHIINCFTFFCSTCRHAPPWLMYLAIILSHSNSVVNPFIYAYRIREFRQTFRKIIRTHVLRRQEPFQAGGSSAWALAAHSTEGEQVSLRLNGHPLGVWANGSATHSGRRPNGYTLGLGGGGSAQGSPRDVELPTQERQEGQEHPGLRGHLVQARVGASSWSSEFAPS

OC[C@H]1O[C@@H](n2cnc3c(NC4CC5CCC4N5)ncnc32)[C@H](O)[C@@H]1O (stereo not given in full)
pKi [1]: 5.11

CC(C)(C)OC(=O)N1CC[C@@H](Nc2ncnc3c2ncn3[C@@H]2O[C@H](CO)[C@@H](O)[C@H]2O)C1
pKi [1]: < 4.00
Ratio Ki [2]: > 4700
Intrinsic activity [3]: 0.99

CC(=O)N1CC[C@@H](Nc2ncnc3c2ncn3[C@@H]2O[C@H](CO)[C@@H](O)[C@H]2O)C1
pKi [1]: < 4.00

CC(C)(C)OC(=O)N1[C@H]2CC[C@H]1[C@H](Nc1ncnc3c1ncn3[C@@H]1O[C@H](CO)[C@@H](O)[C@H]1O)C2
pKi [1]: 4.46
Intrinsic activity [3]: 1.01

OC[C@H]1O[C@@H](n2cnc3c(N[C@@H]4CCOC4)ncnc32)[C@H](O)[C@@H]1O [TECADENOSON]
pKi [1]: < 4.00

OC[C@H]1O[C@@H](n2cnc3c(N[C@@H]4CCSC4)ncnc32)[C@H](O)[C@@H]1O
pKi [1]: 5.01

O=C(OCc1ccccc1)N1[C@H]2CC[C@H]1[C@H](Nc1ncnc3c1ncn3[C@@H]1O[C@H](CO)[C@@H](O)[C@H]1O)C2
pKi [1]: < 4.00

O=C(OCc1ccccc1Cl)N1[C@H]2CC[C@H]1[C@H](Nc1ncnc3c1ncn3[C@@H]1O[C@H](CO)[C@@H](O)[C@H]1O)C2
pKi [1]: < 4.00

O=C(OCc1ccccc1)N1CC[C@@H](Nc2ncnc3c2ncn3[C@@H]2O[C@H](CO)[C@@H](O)[C@H]2O)C1
pKi [1]: < 4.00

OC[C@H]1O[C@@H](n2cnc3c(N[C@@H]4CC[Se]C4)ncnc32)[C@H](O)[C@@H]1O
pKi [1]: 5.26

O=C(OCc1ccccc1Br)N1[C@H]2CC[C@H]1[C@H](Nc1ncnc3c1ncn3[C@@H]1O[C@H](CO)[C@@H](O)[C@H]1O)C2
pKi [1]: < 4.00
Intrinsic activity [3]: 0.97
